Results reported in US10647675B2 (priority 2015, dated 2020).
≈ marks a conversion by molar mass, not a printed value.

Tests used:
[1] = tested on: Trichophyton rubrum KD-1130; assay: Antifungal activity evaluation test: minimum inhibitory concentration (MIC), broth dilution by reference to CLSI M38-A2; type: cell-based; conditions: KD1130, read-out: MIC (T. rubrum)
Description: (§1) The minimum inhibitory concentration (MIC) for Trichophyton mentagrophytes and Trichophyton rubrum was measured by the following procedure by reference to Clinical and Laboratory standards Institute (CLSI) guidelines M38-A2. Reference document for the measurement method: National Committee for a Clinical Laboratory Standards. Reference method for broth dilution antifungal susceptibility testing of filamentous fungi. Approved standard Second edition M38-A2. Wayne, Pa.: National Committee for a Clinical Laboratory Standards, 2008. • Test compound solution: A test compound was dissolved in dimethyl sulfoxide (DMSO) at a concentration of 2.5 mg/mL to give a stock solution. The stock solution was appropriately diluted with DMSO to prepare a 2-fold dilution series. As control compounds, terbinafine and amorolfine were used. • Test strains: Trichophyton mentagrophytes SM-110 and Trichophyton rubrum KD-1130 were used. • Preparation of fungal culture to be inoculated: The above-mentioned test strain was suspended in 0.05% Tween 80-containing saline, and the fungi of the genus Trichophyton were prepared to a fungal concentration of 1×10^6 cells/mL by using a hemocytometer. Then, using MOPS-buffered RPMI 1640 medium (pH 7.0) as a test medium, a fungal culture of the fungi of the genus Trichophyton was diluted 250-fold (4×10^3 cells/mL) to give a fungal culture for inoculation. • MIC measurement of genus Trichophyton fungi: MOPS-buffered RPMI 1640 medium (pH 7.0) was dispensed by 100 μL to given wells of a 96 well U-bottom microplate. Then, the test compound solution (2 μL) was added, the mixture was sufficiently stirred by a plate mixer. The fungal culture (100 μL) was inoculated and the mixture was cultured at 35° C. for 4 days (final fungal concentration: 2×10^3 cells/mL). After the culture, the minimum drug concentration of a well in which a growth inhibitory action of not less than 80% was visually observed as compared to a growth control was taken as a minimum inhibitory concentration (MIC: μg/mL).
(§2) The abbreviations in the Tables mean the following fungi and compounds. • T. menta.: Trichophyton mentagrophytes • T. rubrum: Trichophyton rubrum • TBF: terbinafine • AMF: amorolfine

[2] = tested on: Trichophyton mentagrophytes SM-110; assay: as above; type: cell-based; conditions: SM110, read-out: MIC (T. menta.)
Description: as §1, §2

SMILES | MIC [1] | MIC [2]
COCC(F)(F)c1ccc(Oc2ncccc2-c2cc(F)cc3nccnc23)cn1 [I-170, 5-(2-{[6-(1,1-difluoro-2-methoxyethyl)pyridin-3-yl]oxy}pyridin-3-yl)-7-fluoroquinoxaline] | 0.2 to 0.78 µg/mL (≈ 0.485 to 1.89 µM) | 0.2 to 0.78 µg/mL (≈ 0.485 to 1.89 µM)
C=C(C)c1ccc(Oc2ncccc2-c2ccccc2OC)cn1 [I-453] | ≤ 0.1 µg/mL | ≤ 0.1 µg/mL
COc1ncccc1-c1cccnc1Oc1ccc2c(c1)CCCC2=O [I-272, 6-{[2′-methoxy-(3,3-bipyridin)-2-yl]oxy}-3,4-dihydronaphthalen-1(2H)-one] | ≤ 0.1 µg/mL | ≤ 0.1 µg/mL
Cc1cc(Oc2ncccc2-c2cccc3c2OCC3)cnc1C(F)(F)F [I-448] | ≤ 0.1 µg/mL | ≤ 0.1 µg/mL
COCC(F)(F)c1ccc(Oc2ncccc2-c2cccnc2OC)cn1 [I-348, 2-{[6-(1,1-difluoro-2-methoxyethyl)pyridin-3-yl]oxy}-2′-methoxy-3,3′-bipyridine] | 0.2 to 0.78 µg/mL (≈ 0.536 to 2.09 µM) | 0.2 to 0.78 µg/mL (≈ 0.536 to 2.09 µM)
COc1cc(F)c(F)cc1-c1cncnc1Oc1ccc(C(C)(F)F)nc1 [I-336, 4-{[6-(1,1-difluoroethyl)pyridin-3-yl]oxy}-5-(4,5-difluoro-2-methoxyphenyl)pyrimidine] | ≤ 0.1 µg/mL | ≤ 0.1 µg/mL
C=C(C)c1ncc(Oc2ncccc2-c2ccc(F)cc2OC)cn1 [I-378, 5-{[3-(4-fluoro-2-methoxyphenyl)pyridin-2-yl]oxy}-2-(prop-1-en-2-yl)pyrimidine] | ≤ 0.1 µg/mL | ≤ 0.1 µg/mL
COC(=O)CN(C)c1ncc(Oc2ncccc2-c2ccccc2OC)cn1 [I-387, methyl 2-[(5-{[3-(2-methoxyphenyl)pyridin-2-yl]oxy}pyrimidin-2-yl)(methyl)amino]acetate] | ≤ 0.1 µg/mL | ≤ 0.1 µg/mL
COc1ccccc1-c1cccnc1Oc1ccc(OCCc2ccccc2)nc1 [I-173, 3-(2-methoxyphenyl)-2-[(6-phenethoxypyridin-3-yl)oxy]pyridine] | ≤ 0.1 µg/mL | ≤ 0.1 µg/mL
Cc1noc(-c2cccnc2Oc2ccc(C(C)(F)F)nc2)c1Cl [I-104, 4-chloro-5-(2-{[6-(1,1-difluoroethyl)pyridin-3-yl]oxy}pyridin-3-yl)-3-methylisoxazole] | 0.2 to 0.78 µg/mL (≈ 0.569 to 2.22 µM) | 0.2 to 0.78 µg/mL (≈ 0.569 to 2.22 µM)
COc1ncccc1-c1cccnc1Oc1ccc(CCc2cc(C)no2)cc1 [I-408, 5-(4-{[2′-methoxy-(3,3′-bipyridin)-2-yl]oxy}phenethyl)-3-methylisoxazole] | ≤ 0.1 µg/mL | ≤ 0.1 µg/mL
CCCN(C)c1ccc(Oc2ncccc2-c2ccc(F)cc2OC)cn1 [I-368, 5-{[3-(4-fluoro-2-methoxyphenyl)pyridin-2-yl]oxy}-N-methyl-N-propylpyridin-2-amine] | ≤ 0.1 µg/mL | ≤ 0.1 µg/mL
COc1cc(F)ccc1-c1cccnc1Oc1ccc(C(F)F)nc1 [I-73, 2-{[6-(difluoromethyl)pyridin-3-yl]oxy}-3-(4-fluoro-2-methoxyphenyl)pyridine] | ≤ 0.1 µg/mL | ≤ 0.1 µg/mL
COc1ncccc1-c1cccnc1Oc1ccc(CCn2cc(C)cn2)cc1 [I-401, 2-methoxy-2′-{4-[2-(4-methyl-1H-pyrazol-1-yl)ethyl]phenoxy}-3,3′-bipyridine] | ≤ 0.1 µg/mL | ≤ 0.1 µg/mL
COc1ccccc1-c1nccnc1Oc1ccc2c(c1)CCCC2 [I-315] | ≤ 0.1 µg/mL | ≤ 0.1 µg/mL
COc1ncccc1-c1cccnc1Oc1cnc2c(c1)CCCC2 [I-135, 3-{[2′-methoxy-(3,3′-bipyridin)-2-yl]oxy}-5,6,7,8-tetrahydroquinoline] | ≤ 0.1 µg/mL | ≤ 0.1 µg/mL
COc1ccccc1-c1cccnc1Oc1ccc2c(c1)CCC2 [I-345, 2-[(2,3-dihydro-1H-inden-5-yl)oxy]-3-(2-methoxyphenyl)pyridine] | ≤ 0.1 µg/mL | ≤ 0.1 µg/mL
C#CCOCC(F)(F)c1ccc(Oc2ncccc2-c2ccccc2OC)cn1 [I-160, 2-({6-[1,1-difluoro-2-(2-propyl-1-yloxy)ethyl]pyridin-3-yl}oxy)-3-(2-methoxyphenyl)pyridine] | ≤ 0.1 µg/mL | ≤ 0.1 µg/mL

More lines, now with the values ahead:

MIC [1] | MIC [2] | SMILES
≤ 0.1 µg/mL | ≤ 0.1 µg/mL | Cc1nn(C)c(Cl)c1-c1cccnc1Oc1ccc(C(F)(F)F)cc1 [I-220, 3-(5-chloro-1,3-dimethyl-1H-pyrazol-4-yl)-2-[4-(trifluoromethyl)phenoxy]pyridine]
0.2 to 0.78 µg/mL (≈ 0.549 to 2.14 µM) | 0.2 to 0.78 µg/mL (≈ 0.549 to 2.14 µM) | COC(=O)CCc1ccc(Oc2ncccc2-c2cnccc2OC)cc1 [I-279, methyl 3-(4-{[4′-methoxy-3,3′-bipyridin-2-yl]oxy}phenyl)propionate]
1.56 to 6.25 µg/mL (≈ 2.94 to 11.8 µM) | 1.56 to 6.25 µg/mL (≈ 2.94 to 11.8 µM) | COc1ccncc1-c1cccnc1Oc1ccc(C(OS(=O)(=O)c2ccc(C)cc2)C(F)(F)F)cc1 (centres unmarked) [I-248]
≤ 0.1 µg/mL | ≤ 0.1 µg/mL | COc1ccccc1-c1cccnc1Oc1cnc(C(F)(F)F)c(C)c1 [I-117, 5-{[3-(2-methoxyphenyl)pyridin-2-yl]oxy}-3-methyl-2-(trifluoromethyl)pyridine]
0.2 to 0.78 µg/mL (≈ 0.554 to 2.16 µM) | 0.2 to 0.78 µg/mL (≈ 0.554 to 2.16 µM) | O=[N+]([O-])c1ccccc1-c1cccnc1Oc1ccc(C(F)(F)F)nc1 [I-15, 3-(2-nitrophenyl)-2-{[6-(trifluoromethyl)pyridin-3-yl]oxy}pyridine]
0.2 to 0.78 µg/mL (≈ 0.522 to 2.03 µM) | 0.2 to 0.78 µg/mL (≈ 0.522 to 2.03 µM) | COCC(F)(F)c1ccc(Oc2ncccc2-c2cccc3ncnn23)cn1 [I-343, 5-(2-{[6-(1,1-difluoro-2-methoxyethyl)pyridin-3-yl]oxy}pyridin-3-yl)-[1,2,4]triazolo[1,5-a]pyridine]
≤ 0.1 µg/mL | ≤ 0.1 µg/mL | COc1ccccc1-c1cccnc1Oc1ccc(C(F)(F)Cn2cc(C)cn2)nc1 [I-153, 2-{(6-[1,1-difluoro-2-(4-methyl-1H-pyrazol-1-yl)ethyl]pyridin-3-yl}oxy)-3-(2-methoxyphenyl)pyridine]
≤ 0.1 µg/mL | ≤ 0.1 µg/mL | CC(F)(F)c1ccc(Oc2ncccc2-c2cccc3ccnn23)cc1 [I-307, 7-{2-[4-(1,1-difluoroethyl)-phenoxy]pyridin-3-yl}pyrazolo[1,5-a]pyridine]
≤ 0.1 µg/mL | ≤ 0.1 µg/mL | COc1ccccc1-c1cccnc1Oc1ccc(OC(F)F)cc1 [I-445]
≤ 0.1 µg/mL | ≤ 0.1 µg/mL | COc1ncc(Cl)cc1-c1cccnc1Oc1ccc(C(F)(F)F)nc1 [I-31, 5-chloro-2-methoxy-2′-{[6-(trifluoromethyl)pyridin-3-yl]oxy}-3,3′-bipyridine]
≤ 0.1 µg/mL | ≤ 0.1 µg/mL | COc1cc(F)ccc1-c1cncnc1Oc1ccc(C(C)(F)F)nc1 [I-359, 4-{[6-(1,1-difluoroethyl)pyridin-3-yl]oxy}-5-(4-fluoro-2-methoxyphenyl)pyrimidine]
0.2 to 0.78 µg/mL (≈ 0.609 to 2.38 µM) | 0.2 to 0.78 µg/mL (≈ 0.609 to 2.38 µM) | COc1ccncc1-c1cccnc1Oc1ccc(C(F)F)cc1 [I-294, 2-[4-(difluoromethyl)phenoxy]-4′-methoxy-3,3′-bipyridine]
≤ 0.1 µg/mL | ≤ 0.1 µg/mL | Cc1nsc(-c2cccnc2Oc2ccc(C(F)(F)F)nc2)c1Br [I-377, 4-bromo-3-methyl-5-(2-{[6-(trifluoromethyl)pyridin-3-yl]oxy}pyridin-3-yl)isothiazole]
0.2 to 0.78 µg/mL (≈ 0.563 to 2.2 µM) | 0.2 to 0.78 µg/mL (≈ 0.563 to 2.2 µM) | CC(F)(F)c1ccc(Oc2ncccc2-c2cccc(F)c2C#N)cn1 [I-87, 2-(2-{[6-(1,1-difluoroethyl)pyridin-3-yl]oxy}pyridin-3-yl)-6-fluorobenzonitrile]
≤ 0.1 µg/mL | ≤ 0.1 µg/mL | CCC(C)c1ccc(Oc2ncccc2-c2cnccc2OC)cc1 (centres unmarked) [I-256, 2-[4-(sec-butyl)phenoxy]-4′-methoxy-3,3′-bipyridine]
0.2 to 0.78 µg/mL (≈ 0.611 to 2.38 µM) | 0.2 to 0.78 µg/mL (≈ 0.611 to 2.38 µM) | Cc1ccncc1-c1cccnc1Oc1ccc(C(C)(F)F)nc1 [I-91, 2-{[6-(1,1-difluoroethyl)pyridin-3-yl]oxy}-4′-methyl-3,3′-bipyridine]
≤ 0.1 µg/mL | ≤ 0.1 µg/mL | FC(F)(F)c1ccc(Oc2ncncc2-c2cccc3ccnn23)cc1 [I-332, 7-{4-[4-(trifluoromethyl)phenoxy]pyrimidin-5-yl}pyrazolo[1,5-a]pyridine]
1.56 to 6.25 µg/mL (≈ 4.35 to 17.4 µM) | 0.2 to 0.78 µg/mL (≈ 0.558 to 2.18 µM) | COc1ncccc1-c1cccnc1Oc1ccc(C(F)(F)CO)cc1 [I-434]
≤ 0.1 µg/mL | ≤ 0.1 µg/mL | Cc1ncc(-c2ccc(Oc3ncccc3-c3cnccc3C)cc2)o1 [I-423]
≤ 0.1 µg/mL | ≤ 0.1 µg/mL | Fc1ccc(-c2cccnc2Oc2ccc(C(F)(F)F)nc2)c(F)c1 [I-8, 3-(2,4-difluorophenyl)-2-{[6-(trifluoromethyl)pyridin-3-yl]oxy}pyridine]
≤ 0.1 µg/mL | ≤ 0.1 µg/mL | Fc1ccccc1-c1cccnc1Oc1ccc(C(F)(F)F)nc1 [I-3, 3-(2-fluorophenyl)-2-{[6-(trifluoromethyl)pyridin-3-yl]oxy}pyridine]
≤ 0.1 µg/mL | ≤ 0.1 µg/mL | COc1cccc(-c2cccnc2Oc2ccc(C(F)(F)F)nc2)n1 [I-374, 6-methoxy-2′-{[6-(trifluoromethyl)pyridin-3-yl]oxy}-2,3′-bipyridine]
